Activity calls are given as the source filed them. No cut-off for these calls is given here.
How the values were obtained:
[1] = Toxicity in rat; format: organism-based; conditions: in vivo
[2] = organism: Oryctolagus cuniculus; assay: Stimulation of heparin cofactor-2-induced inhibition of alpha-thrombin in rabbit plasma assessed as [125I]-thrombin-heparin cofactor-2 complex formation by SDS-PAGE and autoradiography; format: cell-free
[3] = organism: Homo sapiens; assay: Stimulation of antithrombin-3-induced inhibition of human alpha-thrombin at 0.2 to 2000 ug/mL
[4] = organism: Oryctolagus cuniculus; assay: Stimulation of antithrombin-3-induced inhibition of alpha-thrombin in rabbit plasma assessed as [125I]-thrombin-antithrombin-3 complex formation by SDS-PAGE and autoradiography; format: cell-free
[5] = test system: Rattus norvegicus; assay: Antiarrhythmic activity in Ivanovas rat assessed as increase LD100 at 5 mg/kg, iv administered 5 mins before aconitine infusion; format: functional, Heart
[6] = test system: Oryctolagus cuniculus; assay: Antithrombotic effect in New Zealand rabbit assessed as time duration to occlusion at 3 mg/kg, po relative to control; format: functional
[7] = test system: Oryctolagus cuniculus; assay: Anticoagulant activity in New Zealand rabbit assessed as increase in activated partial thromboplastin time at 1 mg/kg, po after 8 hrs; format: functional, organism-based; set-up: dose 1 mg/kg
[8] = organism: Homo sapiens; assay: Stimulation of heparin cofactor-2-induced inhibition of human alpha-thrombin
[9] = test system: Oryctolagus cuniculus; assay: Anticoagulant activity in New Zealand rabbit assessed as increase in activated partial thromboplastin time at 1 mg/kg, iv after 120 mins; format: functional, organism-based; set-up: dose 1 mg/kg
[10] = test system: Oryctolagus cuniculus; assay: Increase in bleeding time in New Zealand rabbit at 1 mg/kg, po relative to control; format: organism-based; set-up: dose 1 mg/kg, route oral; conditions: in vivo
[11] = test system: Oryctolagus cuniculus; assay: Anticoagulant activity in New Zealand rabbit assessed as increase in activated partial thromboplastin time at 1 mg/kg, po after 4 hrs relative to untreated control; format: functional
[12] = test system: Plasma; assay: Anticoagulant activity in rabbit plasma assessed as increase in activated partial thromboplastin time; format: functional, cell-free; conditions: Oryctolagus cuniculus
[13] = test system: Oryctolagus cuniculus; assay: Effect on blood pressure in New Zealand rabbit assessed arterial blood pressure at 1 mg/kg, iv after 2 hrs; format: functional
[14] = test system: Oryctolagus cuniculus; assay: Antithrombotic effect in New Zealand rabbit assessed as incidence of complete arterial occlusion at 3 mg/kg, po relative to control; format: functional
[15] = test system: Plasma; assay: Anticoagulant activity in human plasma assessed as increase in activated partial thromboplastin time; format: functional, cell-free
[16] = test system: Oryctolagus cuniculus; assay: Anticoagulant activity in New Zealand rabbit assessed as increase in activated partial thromboplastin time at 1 mg/kg, iv relative to untreated control; format: functional

Row | SMILES | LD50 [1] | Activity [2] | Activity [3] | Activity [4] | Activity [5] | fold change (FC) [6] | Activity [7] | inhibition [8] | Activity [9] | fold change (FC) [10] | fold change (FC) [11] | Activity [12] | Activity [13] | Activity [14] | Activity [15] | fold change (FC) [16]
1 | COC(=O)/C(C(=O)Nc1nccs1)=C1/SC(C(C)=O)=C(C)N1c1ccccc1 | 674 mg/kg | Active | inactive | inactive | 88.8% |  |  |  |  |  |  |  |  |  |  | 
2 | COC(=O)/C(C(=O)Nc1nccs1)=C1/SC(C(C)=O)=NN1c1ccc(S(=O)(=O)N2C(=O)c3c(Cl)c(Cl)c(Cl)c(Cl)c3C2=O)cc1 | 564 mg/kg | Active | inactive | inactive | 88% |  |  |  |  |  |  |  |  |  |  | 
3 | CC(=O)c1nn(-c2ccc(S(N)(=O)=O)cc2)/c(=N/NC(=O)CC(=O)Nc2nccs2)s1 | 546 mg/kg | Active | inactive | inactive | 85% |  |  |  |  |  |  |  |  |  |  | 
4 | O=C(CC(=O)Nn1c(-c2ccccc2)csc1=S)Nc1nccs1 | 292 mg/kg | Active | inactive | inactive | 90.6% |  |  |  |  |  |  |  |  |  |  | 
5 | COC(=O)/C(C(=O)Nc1nccs1)=C1/SC=C(C)N1c1ccccc1 | 434 mg/kg | Active | inactive | inactive | 90.3% |  |  |  |  |  |  |  |  |  |  | 
6 | COC(=O)/C(C(=O)Nc1nccs1)=C(/S)Nc1ccccc1 | 543 mg/kg | Active | inactive | inactive | 80.2% |  |  |  |  |  |  |  |  |  |  | 
7 | COC(=O)/C(C(=O)Nc1nccs1)=C1/SC(C(C)=O)=NN1c1ccc(S(N)(=O)=O)cc1 | 456 mg/kg | Active | inactive | inactive | 90.9% |  |  |  |  |  |  |  |  |  |  | 
8 | CCOC(=O)c1nn(-c2ccc(Br)cc2)/c(=N/NC(=O)CC(=O)Nc2nccs2)s1 | 342 mg/kg | Active | inactive | inactive | 80.1% |  |  |  |  |  |  |  |  |  |  | 
9 | NNC(=O)CC(=O)Nc1nccs1 | 736 mg/kg | Active | inactive | inactive | 87.5% |  |  |  |  |  |  |  |  |  |  | 
10 | O=C(CC(=O)NN1C(=O)c2c(Cl)c(Cl)c(Cl)c(Cl)c2C1=O)Nc1nccs1 | 443 mg/kg | Active | inactive | inactive | 87.1% |  |  |  |  |  |  |  |  |  |  | 
11 | COC(=O)/C(C(=O)Nc1nccs1)=C1/SC=C(c2ccccc2)N1c1ccccc1 | 724 mg/kg | Active | inactive | inactive | 88% |  |  |  |  |  |  |  |  |  |  | 
12 | O=C(CC(=O)Nc1nccs1)NNC(=S)[S-].[K+] [HYDRAZINECARBODITHIONIC ACID POTASSIUM SALT] | 723 mg/kg | Active | inactive | inactive | 90.15% |  |  |  |  |  |  |  |  |  |  | 
13 | CCOC(=O)C1=NN(c2ccc(Cl)cc2)/C(=C(/C(=O)Nc2nccs2)C(=O)OC)S1 | 435 mg/kg | Active | inactive | inactive | 84% |  |  |  |  |  |  |  |  |  |  | 
14 | O=C(CC(=O)Nn1c(=O)c2cc3c(=O)n(NC(=O)CC(=O)Nc4nccs4)c(=O)c3cc2c1=O)Nc1nccs1 | 336 mg/kg | Active | inactive | inactive | 86% | 10 | Active | Active | Active | 3.28 | 2 | Dose-dependent effect | 68.12 mmHg | 42.85% | Dose-dependent effect | 4
15 | O=C(CC(=O)NN1C(=O)c2ccc3c4c(ccc(c24)C1=O)C(=O)N(NC(=O)CC(=O)Nc1nccs1)C3=O)Nc1nccs1 | 445 mg/kg | Active | inactive | inactive | 85% | 12 | Active | Active | Active | 4.33 | 3 | Dose-dependent effect | 67.4 mmHg | 24.57% | Dose-dependent effect | 7
16 | COC(=O)/C(C(=O)Nc1nccs1)=C1/SCC(=O)N1c1ccccc1 | 444 mg/kg | Active | inactive | inactive | 83% |  |  |  |  |  |  |  |  |  |  | 
